# “Also recorded” adds a separate entry of the source.
# Molecular target: intracellular HCV NS5B RdRp activity in BHK-NS5B-FRLuc reporter cells (Hepatitis C virus genotype 1b, UniProt P26663)
# Assay: BHK-NS5B-FRLuc reporter assay, intracellular NS5B RdRp activity
# Assay type: cell-based
# Conditions: 100 µM, 42 hours, RLuc/FLuc vs DMSO
# Sequence of intracellular HCV NS5B RdRp activity in BHK-NS5B-FRLuc reporter cells (P26663 2420-3010): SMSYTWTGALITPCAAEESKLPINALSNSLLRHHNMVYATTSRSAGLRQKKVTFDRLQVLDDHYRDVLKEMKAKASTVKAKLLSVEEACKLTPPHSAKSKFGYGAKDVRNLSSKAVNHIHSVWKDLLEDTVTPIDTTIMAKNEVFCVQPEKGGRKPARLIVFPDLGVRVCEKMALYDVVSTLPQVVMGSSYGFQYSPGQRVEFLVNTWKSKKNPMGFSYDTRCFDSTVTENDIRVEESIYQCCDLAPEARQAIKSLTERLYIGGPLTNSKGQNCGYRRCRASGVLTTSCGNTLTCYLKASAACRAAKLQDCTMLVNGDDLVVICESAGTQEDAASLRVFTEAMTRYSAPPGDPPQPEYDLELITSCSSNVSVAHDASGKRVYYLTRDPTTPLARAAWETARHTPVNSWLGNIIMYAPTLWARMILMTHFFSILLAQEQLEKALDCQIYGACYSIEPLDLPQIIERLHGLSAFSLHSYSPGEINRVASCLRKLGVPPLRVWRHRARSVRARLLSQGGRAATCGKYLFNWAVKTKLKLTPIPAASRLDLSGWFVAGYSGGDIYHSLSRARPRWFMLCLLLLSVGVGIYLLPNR
structure (smiles),measurement,value
"Cc1cc(O)c(C(c2ccc(Cl)c(Cl)c2)c2c(O)cc(C)oc2=O)c(=O)o1 [Compound 8, 3,3'-[(3,4-Dichlorophenyl)methylene]bis(4-hydroxy-6-methyl-2H-pyran-2-one)]",% Inhibition of intracellular NS5B RdRp activity,did not inhibit; also recorded: No inhibition
